“Also recorded” adds a separate entry of the source.
Legend:
PDA T high cell line [1] = experiment: Orthotopic PDA T high pancreatic tumor model in B6 wild-type mice; format: in vivo; settings: 7 daily treatments from day 4, tumors collected day 22, listed as AP-3-84
Method: (§1) (FIGS. 2A-B) B6 wild-type mice were orthotopically injected with PDA T high cell line into the pancreas. T high PDA cell line was previously generated by Dr. Stanger's lab (Upenn), this tumor cell line can induce some T cell infiltration opposite to T low PDA cell line (shown in FIGS. 4A-C). Mice were treated with 7 daily AP-3-84 or vehicle starting from day 4. On day 22 pancreatic tumors were collected and compared across two groups. […] (FIG. 2C) B6 wild-type mice were injected subcutaneously with PDA T high tumor cells and treated with AP-3-84 or vehicle as in FIGS. 2A-B. Tumor growth was measured until day 31. […] (FIG. 2D) Same experiment as in FIGS. 2A-B was conducted in NSG immunodeficient mice.
Statistical analysis of the data was conducted using unpaired Student t-test criteria with additional false discovery rate adjustment for multiple comparisons for gene expression analysis.

Tumor PDAC cells = experiment: Tumor cell viability by Annexin V/DAPI staining; format: cell-based; settings: different concentrations, 16 hours, listed as AP-3-84
Method: (§2) FIGS. 1A-B. Novel Rb1 modulator AP-3-84 induces cell death specifically in macrophages. (FIG. 1A) Tumor PDAC cells and thioglycolate-induced macrophages were cultured with different concentrations of AP-3-84 Rb1 modulator for 16 hours with the following assessment of viability by Annexin V/DAPI staining. […] (FIG. 1B) Thioglycollate-induced macrophages were cultured with 10 uM AP-3-84 for 4 hours and gene expression changes were studied by RNA-Seq.

PDA T high tumor cells = experiment: Subcutaneous PDA T high tumor model in B6 wild-type mice; format: in vivo; settings: measured until day 31
Method: as §1

PDA T low cell line = experiment: PDA T low tumor model (orthotopic or subcutaneous) in B6 wild-type mice; format: in vivo
Method: FIGS. 4A-C. AP-3-84 renders more resistant PDA tumors with low T cell infiltration into immunotherapy responsive tumors. […] Statistical analysis of the data was conducted using unpaired Student t-test criteria with additional false discovery rate adjustment for multiple comparisons for gene expression analysis.

Rb-NT (380-785) = target: T1, Rb-NT (380-785) (Homo sapiens, UniProt P06400); experiment: Inhibition of AP-8-239 binding to Rb-NT (380-785); settings: for Inhibition of AP-8-239 binding Rb-NT (380-785) Top: top of inhibition curve
T1 construct: Rb-NT (380-785)
T1 sequence (P06400 380-785): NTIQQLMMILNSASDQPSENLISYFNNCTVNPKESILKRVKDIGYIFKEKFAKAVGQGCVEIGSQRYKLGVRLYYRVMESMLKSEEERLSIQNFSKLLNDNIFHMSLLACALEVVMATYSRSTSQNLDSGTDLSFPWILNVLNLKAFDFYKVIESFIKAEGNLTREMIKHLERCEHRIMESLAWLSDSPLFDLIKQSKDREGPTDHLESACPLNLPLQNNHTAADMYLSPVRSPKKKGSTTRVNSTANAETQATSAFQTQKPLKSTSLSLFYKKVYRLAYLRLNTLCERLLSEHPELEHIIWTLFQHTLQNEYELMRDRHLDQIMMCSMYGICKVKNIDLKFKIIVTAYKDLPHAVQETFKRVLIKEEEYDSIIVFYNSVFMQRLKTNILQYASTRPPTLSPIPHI

Rb protein = target: T2, Rb protein (Homo sapiens, UniProt P06400); experiment: Iodoacetamide capping of Cys residues of compound-treated Rb protein, MALDI-MS; settings: for # of CH2CONH2: RB + compound + Iodoacetamide, RB + DMSO control gives 8; for Cys residues masked from reacting with the iodoacetamide: Rb protein treated with compound, then iodoacetamide
T2 sequence (P06400 380-785 limits assumed): T1 sequence (P06400 380-785)
Method: Further studies were conducted to evaluate the binding of the compounds to the Rb protein. Using MS, the […] that had been treated with excess amounts of the compounds were then capped with iodoacetamide. […] Furthermore, there was a significant reduction in MS/MS sequencing events. […] One explanation is that the compound activates Cys706 for nucleophilic attack from Cys712.
In order to confirm that, the Rb protein was treated with iodoacetamide to cap the Cys residues. The predicted chart is shown below.

[2] = system: Thioglycollate-induced macrophages; experiment: Gene expression changes by RNA-Seq; format: cell-based; settings: 10 uM, 4 hours, listed as AP-3-84
Method: as §2

[3] = system: nonhemopoitic cancer cells; experiment: Cell proliferation by CFSE dye dilution; format: cell-based; settings: nonhemopoietic cancer cells
From the text: FIG. 22A-22C. […] A. Graphs indicates the total percentage of cell death (annexin V+ and AnnexinV+Live-Dead+ cells) in PMA treated THP-1 cells. […] C. Histogram indicates cell proliferation, measured by CSFE dye dilution in presence of AP-3-84 and other inhibitors. Bar diagram indicates average MFI of CFSE dye in presence of different inhibitors.

[4] = system: Nonhemopoietic cancer cells (ID8, PDAC); experiment: Cell death in nonhemopoietic cancer cells; format: cell-based; settings: listed as AP-3-84
Method: (§3) Additionally, the inventors obtained test results showing the compounds to be effective in models of AML. AML cell lines (THP-1, AML-193, Kasumi-1) were cultured at different cell concentration (75000/ml, 125,000/ml and 200,000/ml) and exposed to 5, 10, 15, 20 μM concentration of AP-3-84. Cell differentiation was induced by 100 ng/ml PMA over 24 hours. Nonhemopoietic cancer cells (ID8, PDAC) were analyzed after exposure to AP-3-84. Cell death outcomes were measured by Annexin-V using flowcytometry or viability measures by Alamar blue assay. Protein levels were measured by Western blots at intervals between 30 min and 6 hours after exposure to AP-3-84 for total Rb1, phosphorylated Rb1, ATF3, BIM, NOXA, BaK, Bax, cleaved PARP, cleaved Caspase-3. Cytoplasmic and mitochondrial lysates were examined. Confocal immunocytochemistry on Rb1 expression in nucleus versus cytoplasm was performed.

[5] = system: tumor-associated macrophages; experiment: Flow cytometry of immune cells in orthotopic PDA T high model; format: in vivo, mice
Method: FIGS. 3A-B. AP-3-84 depletes tumor macrophages and re-shapes immune cell landscape. (FIGS. 3A-B) B6 wild-type mice were orthotopically injected with PDA T high cell line into the pancreas and treated with AP-3-84 or vehicle as in FIGS. 2A-D. Tumor cells on day 12 (FIG. 3A) or peritoneum cells on day 21 (FIG. 3B) were analyzed by flow cytometry. […] Significant effects on activation and differentiation of immune cells in tumor and periphery were also found (not shown).

[6] = target: T3, HDAC1 binding Rb-NT (380-785) (Homo sapiens, UniProt P06400); experiment: Inhibition of HDAC1 binding to Rb-NT (380-785); settings: for Inhibition of HDAC1 binding Rb-NT (380-785) Top: top of inhibition curve
T3 construct: Rb-NT (380-785)
T3 sequence (P06400 380-785): T1 sequence (P06400 380-785)
Method: Additionally, the binding of different proteins was evaluated. The binding of E7, E2F1, MDM2, and HDAC1 were evaluated to Rb fragments. The compounds tested herein where shown inhibit HDAC1 binding to the Rb fragments in the LxCxE binding pocket.

PDA T high cell line [7] = experiment: Orthotopic PDA T high tumor model in NSG immunodeficient mice; format: in vivo
Method: as §1

THP-1 cell line = experiment: Western blots of ER stress and apoptosis proteins; format: cell-based; settings: Western blot, listed as AP-3-84
Method: as §3

[8] = system: thioglycolate-induced macrophages; experiment: Macrophage viability by Annexin V/DAPI staining; format: cell-based; settings: different concentrations, 16 hours, listed as AP-3-84
Method: as §2

[9] = system: AML cell lines (THP-1, AML-193, Kasumi-1); experiment: Cell death in AML cell lines (Annexin-V flow cytometry, Alamar blue); format: cell-based
Method: as §3

[10] = system: PMA differentiated THP1 cells; experiment: Cell death in PMA differentiated THP-1 cells; format: cell-based; settings: PMA treated THP-1 cells; listed as AP-3-84
Method: as §3

COc1cccc(-n2sc(=O)n(C)c2=O)c1 [AP-03-084]
pancreatic tumor growth (PDA T high cell line [1]): significant reduction of tumor growth; also recorded: significantly reduced the tumor growth in mice | PDA tumor cell viability / death of other cell types (Tumor PDAC cells): not of the other cell types (neither tumor nor T cells); also recorded: didn't affect PDA tumor cell viability | tumor growth (PDA T high tumor cells): Significant reduction of tumor growth | tumor growth, AP-3-84 treatment alone (PDA T low cell line; orthotopic and subcutaneous models): didn't dramatically affect the tumor growth | tumor growth, combined with Immunotherapy (PDA T low cell line; with anti-PD1/anti-CTLA4/anti-CD40, listed as AP-3-84): decrease tumor burden in T-low-PDA model; also recorded: effectively reduced the tumor growth compared to monotherapies | IC50 (Rb-NT (380-785)): 445 nM | Inhibition of AP-8-239 binding Rb-NT (380-785) Top (Rb-NT (380-785)): 90.1% | # of CH2CONH2 (Rb protein): 2 | Cys residues masked from reacting with the iodoacetamide (Rb protein): 6 | gene expression changes [2]: induction of oxidative and ER stress programs with a clear activation of p53-dependent genes and caspases; also recorded: induced strong unfolded protein and oxidative stress response with the induction of apoptosis pathway and p53 signaling | cell division rate [3]: No effect in cell division rate | cell death [4]: no cell death was induced; also recorded: does not induce cell death in ID8 cells | immune cell composition in the peritoneum ([5]; peritoneum cells on day 21, flow cytometry): re-shapes the immune cell composition in the peritoneum | tumor-associated macrophages in tumors ([5]; tumor cells on day 12, flow cytometry, listed as AP-3-84): depleting macrophages and inducing T cell infiltration; also recorded: effectively depletes tumor-associated macrophages in tumors | IC50 [6]: 89 nM | Inhibition of HDAC1 binding Rb-NT (380-785) Top [6]: 75% | tumor growth (PDA T high cell line [7]): No effect of AP-3-84 treatment was observed | apoptosis proteins (NOXA, BIM, cleaved-PARP, cleaved Caspase-3) (THP-1 cell line; 10 uM in FIG. 23A): increased mitochondrial protein levels of NOXA, BIM, cleaved-PARP, and cleaved Caspase-3; also recorded: induction of Cleaved-PARP, Noxa and Cleaved-caspase 3 | Bax, Bak, Bcl-2, Bcl-xl levels (THP-1 cell line): Bax and Bak levels were unchanged; also recorded: Bax Bcl-2 and Bcl-xl does not get altered | ER-stress signals (ATF4, ATF3, peIF2a) (THP-1 cell line): induced higher levels of ER-stress signals (higher ATF4, ATF3); also recorded: Induction of ATF4, ATF3 and peIF2a | macrophage cell death [8]: can induce cell death of TAMs and thioglycolate-induced macrophages; also recorded: induced macrophage cell death in dose-dependent manner | cells undergoing cell death ([9]; 5 minute exposure, 24 hours later): 70-80% | concentration at which induction of cell death was observed ([9]; AML cells, tested at 5, 10, 15, 20 μM): ≥ 10 µM | cell death in AML cell lines ([9]; THP-1, AML-193, Kasumi-1, annexin V+ and AnnexinV+Live-Dead+ cells): induced cell death in different AML cell lines | cell death [10]: no cell death was induced; also recorded: minor effect on PMA treated THP-1 cells

Cn1c(=O)sn(-c2cccc(OCCCNC(=S)Nc3ccc4c(c3)C(=O)OC43c4ccc(O)cc4Oc4cc(O)ccc43)c2)c1=O [AP-08-239]
# of CH2CONH2 (Rb protein): 6 | Cys residues masked from reacting with the iodoacetamide (Rb protein): 2

Cn1c(=O)sn(-c2cccc(OCCCNC(=O)CC[C@@H](NC(=O)c3ccc(NCCc4cc5c(=O)[nH]c(N)nc5[nH]4)cc3)C(=O)O)c2)c1=O [AP-08-237]
IC50 (Rb-NT (380-785)): 22 nM | Inhibition of AP-8-239 binding Rb-NT (380-785) Top (Rb-NT (380-785)): 85.9% | IC50 [6]: 171 nM | Inhibition of HDAC1 binding Rb-NT (380-785) Top [6]: 72%

C=CC(=O)N(C)C(=O)Nc1cccc(OC)c1 [SA-01-048]
IC50 (Rb-NT (380-785)): 2920 nM | Inhibition of AP-8-239 binding Rb-NT (380-785) Top (Rb-NT (380-785)): 83.8% | IC50 [6]: 12700 nM | Inhibition of HDAC1 binding Rb-NT (380-785) Top [6]: 69%

Cn1c(=O)sn(-c2cccc(OCCCNC(=O)c3ccccc3)c2)c1=O [AP-08-238]
IC50 (Rb-NT (380-785)): 54 nM | Inhibition of AP-8-239 binding Rb-NT (380-785) Top (Rb-NT (380-785)): 90.6% | IC50 [6]: 83 nM | Inhibition of HDAC1 binding Rb-NT (380-785) Top [6]: 71%

Cn1c(=O)sn(-c2cccc(OCCCN)c2)c1=O [AP-08-231]
IC50 (Rb-NT (380-785)): 362 nM | Inhibition of AP-8-239 binding Rb-NT (380-785) Top (Rb-NT (380-785)): 83.3% | IC50 [6]: 77 nM | Inhibition of HDAC1 binding Rb-NT (380-785) Top [6]: 72%

O=c1sn(-c2cccc3ccccc23)c(=O)n1Cc1ccccc1 [Tideglusib, reference compound]
IC50 (Rb-NT (380-785)): 126 nM | Inhibition of AP-8-239 binding Rb-NT (380-785) Top (Rb-NT (380-785)): 86.9% | IC50 [6]: 40 nM | Inhibition of HDAC1 binding Rb-NT (380-785) Top [6]: 77%

— patent US20250221967A1, “COMPOSITIONS AND METHODS FOR THE TREATMENT OF CANCER AND OTHER PROLIFERATIVE DISEASES” (THE WISTAR INSTITUTE OF ANATOMY AND BIOLOGY, priority 2022, published 2025)
